Data reported in US9974778B2, “Substituted pyridinones as MGAT2 inhibitors” (BRISTOL-MYERS SQUIBB COMPANY, priority 2014, dated 2018).

target: T1, Human MGAT-2 (Homo sapiens, UniProt Q3SYC2); assay: MGAT LCMS Assay; assay type: biochemical; details: human MGAT2 membranes expressed in Sf9 cells; 100 μM 2-oleoylglycerol, 15 μM oleoyl-coenzyme A; read-out: h-MGAT LCMS IC50
T1 construct: made in house; host or cells: Sf9 cells (membrane preparation)
Procedure: Assay plates were run through a fully automated robotics system and shaken for 5 seconds every minute for a total 10 minutes. The reactions were then quenched with 120 μL of ice cold methanol containing 1 μg/mL 1,2-distearoyl-rac-glycerol as the internal standard. Plates were shaken for 2 minutes and spun down to remove protein precipitation. After the spin, samples were transferred to LC/MS compatible PCR plates. For LC/MS analysis, a ThermoFisher Surveyor pump, utilizing a Waters […]® C8, 50×2.1 mm column, was used for the chromatography of enzyme products. The buffer system consists of 0.1% formic acid in water with a mobile phase consisting 0.1% formic acid in methanol. […] The first 0.5 minutes of each injection was diverted to waste to eliminate the presence of Phosphate buffer in the enzymatic reaction. The column was run at 0.6 mL/min and a temperature of 65° C. Mass spectrometry analysis of the samples was performed on a ThermoFisher Quantum Triple quad utilizing APCI (+) as the mode of ionization. […] The ratio of Diolein to internal standard (Peak Area Ratio) is utilized to calculate IC50 values.

T1 sequence (Q3SYC2 whole entry): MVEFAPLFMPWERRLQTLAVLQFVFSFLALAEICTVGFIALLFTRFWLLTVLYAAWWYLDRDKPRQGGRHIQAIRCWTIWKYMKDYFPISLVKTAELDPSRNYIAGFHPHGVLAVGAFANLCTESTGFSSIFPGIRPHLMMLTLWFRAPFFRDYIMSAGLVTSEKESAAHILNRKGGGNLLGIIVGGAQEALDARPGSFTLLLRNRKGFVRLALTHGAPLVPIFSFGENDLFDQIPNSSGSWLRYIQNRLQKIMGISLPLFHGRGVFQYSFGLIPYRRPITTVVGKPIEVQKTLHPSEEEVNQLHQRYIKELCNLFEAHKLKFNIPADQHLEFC

SMILES	IC50 [nM]
Cc1ccc(-c2cc(-c3ccc(OCCCC(F)(F)F)cc3)[nH]c(=O)c2-n2nn[nH]c2=O)cc1 [Example 153, 3-(5-Oxo-4,5-dihydro-1H-tetrazol-1-yl)-4-(p-tolyl)-6-(4-(4,4,4-trifluorobutoxy)phenyl)pyridin-2(1H)-one]	49
CCc1ccc(-c2cc(-c3ccc(OCCCC(F)(F)F)cc3F)[nH]c(=O)c2C(=O)Nc2ccc(OC(F)(F)F)cc2)s1 [Example 116, 4-(5-Ethylthiophen-2-yl)-6-(2-fluoro-4-(4,4,4-trifluorobutoxy)phenyl)-2-oxo-N-(4-(trifluoromethoxy)phenyl)-1,2-dihydropyridine-3-carboxamide]	17
Cc1ccc(-c2cc(-c3ccc(OCCCC(F)(F)F)c(C)c3)[nH]c(=O)c2-c2nnn[nH]2)cc1 [Example 58, 6-(3-Methyl-4-(4,4,4-trifluorobutoxy)phenyl)-3-(1H-tetrazol-5-yl)-4-(p-tolyl)pyridin-2(1H)-one]	575
COc1ccc(NC(=O)c2c(-c3ccc(C)cc3)cc(-c3ccc(OCCCC(F)(F)F)cc3)[nH]c2=O)cc1 [Example 2, N-(4-Methoxyphenyl)-2-oxo-4-(p-tolyl)-6-(4-(4,4,4-trifluorobutoxy)phenyl)-1,2-dihydropyridine-3-carboxamide]	30
CCc1ccc(-c2cc(-c3ccc(OCCCC(F)(F)F)cc3Cl)[nH]c(=O)c2-n2nn[nH]c2=O)s1 [Example 22, 6-(2-Chloro-4-(4,4,4-trifluorobutoxy)phenyl)-4-(5-ethylthiophen-2-yl)-3-(5-oxo-4,5-dihydro-1H-tetrazol-1-yl)pyridin-2(1H)-one]	252
CCc1ccc(-c2cc(-c3ccc(OCCCC(F)(F)F)cc3Cl)[nH]c(=O)c2-c2nnn[nH]2)s1 [Example 139, 6-(2-Chloro-4-(4,4,4-trifluorobutoxy)phenyl)-4-(5-ethylthiophen-2-yl)-3-(1H-tetrazol-5-yl)pyridin-2(1H)-one]	4
Cc1ccc(-c2c(C)c(-c3ccc(OCCCC(F)(F)F)cc3)[nH]c(=O)c2-c2nnn[nH]2)cc1 [Example 7, 5-Methyl-3-(1H-tetrazol-5-yl)-4-(p-tolyl)-6-(4-(4,4,4-trifluorobutoxy)phenyl)pyridin-2(1H)-one]	9
CCOc1ccc(NC(=O)c2c(-c3ccn(CC)n3)cc(-c3ccc(OCCCC(F)(F)F)cc3F)[nH]c2=O)cc1 [Example 119, N-(4-Ethoxyphenyl)-4-(1-ethyl-1H-pyrazol-3-yl)-6-(2-fluoro-4-(4,4,4-trifluorobutoxy)phenyl)-2-oxo-1,2-dihydropyridine-3-carboxamide]	10
O=C(NS(=O)(=O)C1CC1)c1c(-c2ccn(C3CCC3)n2)cc(-c2ccc(OCCCC(F)(F)F)cc2F)[nH]c1=O [Example 77, 4-(1-Cyclobutyl-1H-pyrazol-3-yl)-N-(cyclopropylsulfonyl)-6-(2-fluoro-4-(4,4,4-trifluorobutoxy)phenyl)-2-oxo-1,2-dihydropyridine-3-carboxamide]	143
O=c1[nH]c(-c2ccc(OCCCC(F)(F)F)cc2F)cc(-c2ccc(OC(F)F)cc2)c1-c1nn[nH]n1 [Example 113, 4-(4-(Difluoromethoxy)phenyl)-6-(2-fluoro-4-(4,4,4-trifluorobutoxy)phenyl)-3-(2H-tetrazol-5-yl)pyridin-2(1H)-one]	7
CC(C)(C)c1ccc(-c2cc(-c3ccc(OCCCC(F)(F)F)cc3)[nH]c(=O)c2-c2nnn[nH]2)cc1 [Example 48, 4-(4-(tert-Butyl)phenyl)-3-(1H-tetrazol-5-yl)-6-(4-(4,4,4-trifluorobutoxy)phenyl)pyridin-2(1H)-one]	40
CCc1cnc(-c2cc(-c3ccc(/C=C/C4CC4)cc3)[nH]c(=O)c2-c2nn[nH]n2)s1 [Example 147, (E)-6-(4-(2-Cyclopropylvinyl)phenyl)-4-(5-ethylthiazol-2-yl)-3-(2H-tetrazol-5-yl)pyridin-2(1H)-one]	7
CCOc1cc(OCCCC(F)(F)F)ccc1-c1cc(-c2ncc(C3CC3)s2)c(-c2nnn[nH]2)c(=O)[nH]1 [Example 137, 4-(5-Cyclopropylthiazol-2-yl)-6-(2-ethoxy-4-(4,4,4-trifluorobutoxy)phenyl)-3-(1H-tetrazol-5-yl)pyridin-2(1H)-one]	5
O=C(Nc1ccc(OC(F)(F)F)cc1)c1c(-c2cnn(C3CC3)c2)cc(-c2ccc(OCCCC(F)(F)F)cc2)[nH]c1=O [Example 95, 4-(1-Cyclopropyl-1H-pyrazol-4-yl)-2-oxo-6-(4-(4,4,4-trifluorobutoxy)phenyl)-N-(4-(trifluoromethoxy)phenyl)-1,2-dihydropyridine-3-carboxamide]	17
CCc1ccc(-c2cc(-c3ccc(OCCCC(F)(F)F)cc3)[nH]c(=O)c2C(=O)NS(C)(=O)=O)s1 [Example 21, 4-(5-Ethylthiophen-2-yl)-N-(methylsulfonyl)-2-oxo-6-(4-(4,4,4-trifluorobutoxy)phenyl)-1,2-dihydropyridine-3-carboxamide]	21

Further lines, results first:

IC50 [nM]	SMILES
46	CCc1ccc(-c2cc(-c3ccc(OCCCCCC(F)(F)F)cc3F)[nH]c(=O)c2-n2nn[nH]c2=O)s1 [Example 157, 4-(5-Ethylthiophen-2-yl)-6-{2-fluoro-4-[(6,6,6-trifluorohexyl)oxy]phenyl}-3-(5-oxo-4,5-dihydro-1H-1,2,3,4-tetrazol-1-yl)-1,2-dihydropyridin-2-one]
55	CCCC1CC=C(c2ccc(-c3cc(-c4ccc(CC)s4)c(-c4nn[nH]n4)c(=O)[nH]3)cc2)CC1 (stereo not drawn) [Example 164, 4-(5-Ethylthiophen-2-yl)-6-[4-(4-propylcyclohex-1-en-1-yl)phenyl]-3-(2H-1,2,3,4-tetrazol-5-yl)-1,2-dihydropyridin-2-one]
97	Cc1ccc(-c2cc(-c3ccc(OCCCCCC(F)(F)F)c(C)c3)[nH]c(=O)c2-c2nnn[nH]2)cc1 [Example 70, 6-(3-Methyl-4-((6,6,6-trifluorohexyl)oxy)phenyl)-3-(1H-tetrazol-5-yl)-4-(p-tolyl)pyridin-2(1H)-one]
23	CS(=O)(=O)NC(=O)c1c(-c2ccn(CC3CC3)n2)cc(-c2ccc(OCCCCCC(F)(F)F)cc2)[nH]c1=O [Example 105, 4-(1-(Cyclopropylmethyl)-1H-pyrazol-3-yl)-N-(methylsulfonyl)-2-oxo-6-(4-((6,6,6-trifluorohexyl)oxy)phenyl)-1,2-dihydropyridine-3-carboxamide]
153	O=c1[nH]c(-c2ccc(OCCCC(F)(F)F)cc2)cc(-c2ccn(CC3CC3)n2)c1-c1nnn[nH]1 [Example 97]
30	CC(C)n1ccc(-c2cc(-c3ccc(OCCCCCC(F)(F)F)cc3)[nH]c(=O)c2-c2nnn[nH]2)c1 [Example 57, 4-(1-Isopropyl-1H-pyrrol-3-yl)-3-(1H-tetrazol-5-yl)-6-(4-((6,6,6-trifluorohexyl)oxy)phenyl)pyridin-2(1H)-one]
1	O=c1[nH]c(-c2ccc(OCCCCCC(F)(F)F)cc2F)cc(-c2ccc(C3CC3)s2)c1-c1nn[nH]n1 [Example 96, 4-(5-Cyclopropylthiophen-2-yl)-6-(2-fluoro-4-((6,6,6-trifluorohexyl)oxy)phenyl)-3-(2H-tetrazol-5-yl)pyridin-2(1H)-one]
5	COc1ccc(NC(=O)c2c(-c3ccc(C)cc3)cc(-c3nc(-c4ccccc4)oc3C)[nH]c2=O)cc1 [Example 4, N-(4-Methoxyphenyl)-6-(5-methyl-2-phenyloxazol-4-yl)-2-oxo-4-(p-tolyl)-1,2-dihydropyridine-3-carboxamide]
24	CCCCCc1ccc(-c2cc(-c3ccc(C)cc3)c(C(=O)Nc3cccnc3)c(=O)[nH]2)cc1 [Example 23, 2-Oxo-6-(4-pentylphenyl)-N-(pyridin-3-yl)-4-(p-tolyl)-1,2-dihydropyridine-3-carboxamide]
29	Cc1ccc(-c2cc(-c3ccc(OCCCCCC(F)(F)F)cc3)[nH]c(=O)c2C(=O)NS(=O)(=O)N(C)C)cc1 [Example 56, N-(N,N-Dimethylsulfamoyl)-2-oxo-4-(p-tolyl)-6-(4-((6,6,6-trifluorohexyl)oxy)phenyl)-1,2-dihydropyridine-3-carboxamide]
99	O=c1[nH]c(-c2ccc(OCCCCCC(F)(F)F)cc2)cc(-c2ccn(C3CC3)n2)c1-c1nnn[nH]1 [Example 107]
26	O=c1[nH]c(-c2ccc(CCCCC(F)(F)F)cc2F)cc(-c2ccn(C3CCC3)n2)c1-c1nnn[nH]1 [Example 103]
139	CCOc1ccc(NC(=O)c2c(-c3ccc(N(C)C)cc3)cc(C3(F)CCCCC3)[nH]c2=O)cc1 [Example 39, 4-(4-(Dimethylamino)phenyl)-N-(4-ethoxyphenyl)-6-(1-fluorocyclohexyl)-2-oxo-1,2-dihydropyridine-3-carboxamide]
223	COc1ccc(NC(=O)c2c(-c3ccc(C)cc3)cc(C3CCCCC3)[nH]c2=O)cc1 [Example 34, 6-Cyclohexyl-N-(4-methoxyphenyl)-2-oxo-4-(p-tolyl)-1,2-dihydropyridine-3-carboxamide]
38	Cc1ccc(-c2cc(-c3ccc(OCCCCCC(F)(F)F)cc3F)[nH]c(=O)c2-n2nn[nH]c2=O)cc1 [Example 159, 6-{2-Fluoro-4-[(6,6,6-trifluorohexyl)oxy]phenyl}-4-(4-methylphenyl)-3-(5-oxo-4,5-dihydro-1H-1,2,3,4-tetrazol-1-yl)-1,2-dihydropyridin-2-one]
